Results: patent US20090023721A1, “Novel Substituted Tetracyclic Tetrahydrofuran, Pyrrolidine and Tetrahydrothiophene Derivatives and Their Use as a Medicament” (priority 2005, published 2009)
pIC50: −log10 of the molar value. Where two headings read alike, the source gives them in different places.

Legend:
[1] = molecular target: T1, human Dopamine D2L receptor (Homo sapiens, UniProt P14416); experiment: In vitro binding affinity for human D2L receptor ([3H]Spiperone); conditions: human D2L receptor-transfected CHO cell membranes, [3H]Spiperone; read-out: h-D2L (converted)
T1 construct: expressed in transfected cells; host or cells: CHO cells (frozen membranes)
T1 sequence (P14416 whole entry): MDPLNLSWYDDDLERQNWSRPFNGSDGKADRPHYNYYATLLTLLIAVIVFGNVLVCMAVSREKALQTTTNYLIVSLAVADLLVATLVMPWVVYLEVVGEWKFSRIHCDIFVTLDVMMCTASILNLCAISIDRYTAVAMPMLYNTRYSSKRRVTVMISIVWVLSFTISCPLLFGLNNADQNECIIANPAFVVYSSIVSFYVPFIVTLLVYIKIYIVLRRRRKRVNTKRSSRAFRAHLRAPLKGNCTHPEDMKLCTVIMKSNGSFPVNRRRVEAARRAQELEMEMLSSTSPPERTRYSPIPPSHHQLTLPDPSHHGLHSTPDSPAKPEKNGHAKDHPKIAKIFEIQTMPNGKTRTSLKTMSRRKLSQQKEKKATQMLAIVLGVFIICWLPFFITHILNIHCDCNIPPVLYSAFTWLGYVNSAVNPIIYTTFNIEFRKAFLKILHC
Description: Frozen membranes of human Dopamine D2L receptor-transfected CHO cells were thawed, briefly homogenised using an Ultra-Turrax T25 homogeniser and diluted in Tris-HCl assay buffer containing NaCl, CaCl2, MgCl2, KCl (50, 120, 2, 1, and 5 mM respectively, adjusted to pH 7.7 with HCl) to an appropriate protein concentration optimised for specific and non-specific binding. Radioligand [^3H]Spiperone (NEN, specific activity ˜70 Ci/mmol) was diluted in assay buffer at a concentration of 2 nmol/L. Prepared radioligand (50 μl), along with 50 μl of either the 10% DMSO control, Butaclamol (10-6 mol/l final concentration), or compound of interest, was then incubated (30 min, 37° C.) with 400 μl of the prepared membrane solution. Membrane-bound activity was filtered through a Packard Filtermate harvester onto GF/B Unifilterplates and washed with ice-cold Tris-HCl buffer (50 mM; pH 7.7; 6×0.5 ml). Filters were allowed to dry before adding scintillation fluid and counting in a Topcount scintillation counter. Percentage specific bound and competition binding curves were calculated using S-Plus software (Insightful).

[2] = molecular target: T2, NET (Rattus norvegicus, UniProt Q9WTR4); experiment: In vitro determination of NET reuptake inhibition ([3H]Nixosetine binding, rat brain cortex membranes)
T2 construct: Cortex from rat brain was collected and homogenised; from tissue; host or cells: rat brain cortex membranes
T2 sequence (Q9WTR4 1-597): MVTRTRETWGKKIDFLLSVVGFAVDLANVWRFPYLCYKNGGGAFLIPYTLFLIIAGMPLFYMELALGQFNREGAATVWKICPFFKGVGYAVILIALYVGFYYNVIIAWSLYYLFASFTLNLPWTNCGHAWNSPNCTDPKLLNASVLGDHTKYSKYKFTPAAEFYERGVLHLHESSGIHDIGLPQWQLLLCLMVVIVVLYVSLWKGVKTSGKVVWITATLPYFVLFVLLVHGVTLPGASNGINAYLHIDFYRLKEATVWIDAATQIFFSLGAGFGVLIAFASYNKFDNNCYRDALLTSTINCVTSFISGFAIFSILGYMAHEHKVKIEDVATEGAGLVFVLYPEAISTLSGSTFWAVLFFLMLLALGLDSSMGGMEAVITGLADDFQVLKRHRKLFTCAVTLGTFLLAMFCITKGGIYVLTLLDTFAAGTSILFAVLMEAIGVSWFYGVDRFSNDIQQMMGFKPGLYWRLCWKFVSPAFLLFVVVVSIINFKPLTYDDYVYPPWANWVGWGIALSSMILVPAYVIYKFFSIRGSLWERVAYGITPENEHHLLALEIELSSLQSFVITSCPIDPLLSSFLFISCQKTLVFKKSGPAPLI

[3] = molecular target: T3, human cloned 5-HT2C receptor, expressed in CHO cells (Homo sapiens, UniProt P28335); experiment: In vitro radioligand binding affinity for 5-HT2C receptor ([3H]mesulergine); conditions: human cloned 5-HT2C receptor in CHO cells, [3H]mesulergine; read-out: h-5HT2C (converted)
T3 construct: expressed in transfected cells; host or cells: CHO cells
T3 sequence (P28335 33-458): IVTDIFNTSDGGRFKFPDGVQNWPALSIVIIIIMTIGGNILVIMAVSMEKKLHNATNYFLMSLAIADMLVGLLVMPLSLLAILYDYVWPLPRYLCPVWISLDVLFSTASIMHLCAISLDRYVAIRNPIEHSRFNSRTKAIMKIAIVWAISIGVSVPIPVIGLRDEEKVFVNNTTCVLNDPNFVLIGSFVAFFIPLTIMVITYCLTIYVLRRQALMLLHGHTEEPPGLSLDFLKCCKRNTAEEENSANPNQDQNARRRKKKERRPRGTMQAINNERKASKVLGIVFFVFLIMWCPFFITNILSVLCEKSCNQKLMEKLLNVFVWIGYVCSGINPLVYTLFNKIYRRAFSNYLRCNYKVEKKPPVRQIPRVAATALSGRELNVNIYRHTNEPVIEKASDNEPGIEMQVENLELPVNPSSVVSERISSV

[4] = molecular target: T4, human cloned 5-HT2A receptor, expressed in L929 cells (Homo sapiens, UniProt P28223); experiment: In vitro radioligand binding affinity for 5-HT2A receptor ([125I]R91150); conditions: for IC50: human cloned 5-HT2A receptor in L929 cells, [125I]R91150, read-out: h-5HT2A (converted)
T4 construct: expressed in transfected cells; host or cells: L929 cells
T4 sequence (P28223 whole entry): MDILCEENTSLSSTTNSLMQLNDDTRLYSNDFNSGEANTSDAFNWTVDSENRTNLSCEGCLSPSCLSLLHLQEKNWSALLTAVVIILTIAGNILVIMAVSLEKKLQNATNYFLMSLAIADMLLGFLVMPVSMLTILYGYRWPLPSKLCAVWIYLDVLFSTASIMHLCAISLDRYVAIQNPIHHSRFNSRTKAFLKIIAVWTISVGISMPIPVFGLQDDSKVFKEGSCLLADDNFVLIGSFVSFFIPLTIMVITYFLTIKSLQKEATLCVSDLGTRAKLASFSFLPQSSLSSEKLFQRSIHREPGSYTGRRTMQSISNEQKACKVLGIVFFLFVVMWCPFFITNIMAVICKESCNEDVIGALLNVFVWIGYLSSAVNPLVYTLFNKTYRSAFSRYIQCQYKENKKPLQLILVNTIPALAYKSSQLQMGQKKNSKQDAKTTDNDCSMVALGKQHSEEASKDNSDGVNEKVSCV
In short: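 Competition radioligand binding at equilibrium with varying test-compound concentrations; bound radioactivity separated and counted. 5-HT2A: human cloned receptor in L929 cells, [125I]R91150. 5-HT2C: human cloned receptor in CHO cells, [3H]mesulergine.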

Structure (SMILES) | IC50 [1] [nM] | pIC50 [2] | IC50 [3] [nM] | IC50 [4] [nM] | melting point [°C] | NET Reuptake Inhibition [2] | pIC50 [4]
CN(C)C[C@H]1C[C@@H]2c3ccccc3Cc3ccc(F)cc3[C@H]2N1CCO [compound 39, 2-((2R,3aR,12bS)-2-[(dimethylamino)methyl]-11-fluoro-3,3a,8,12b-tetrahydrodibenzo-[3,4:6,7]cyclohepta[1,2-b]pyrrol-1(2H)-yl)ethanol] | > 1000 | 6.90 | 46.8 | 87.1 | 88 to 90 | – | –
N[C@@H]1CO[C@H]2c3cc(F)ccc3Cc3ccccc3[C@H]2C1 [compound 30, (3S,4aR,13bR)-12-fluoro-2,3,4,4a,9,13b-hexahydrodibenzo[3,4:6,7]cyclohepta[1,2-b]pyran-3-amine] | > 1000 | 6.52 | 145 | 269 | 74 to 76 | – | –
CN(C)[C@@H]1CO[C@H]2c3cc(F)ccc3Cc3ccccc3[C@H]2C1 [compound 32, (3S,4aR,13bR)-12-fluoro-N,N-dimethyl-2,3,4,4a,9,13b-hexahydrodibenzo[3,4:6,7]-cyclohepta[1,2-b]pyran-3-amine] | > 1000 | 7.71 | 132 | 676 | 58 to 59 | – | –
Fc1ccc2c(c1)[C@@H]1[C@H](C[C@@H]3CNC(=S)N31)c1ccccc1C2 [compound 8, (4aS,13bR,14aR)-6-fluoro-1,4a,9,13b,14,14a-hexahydrodibenzo[3 ′,4′:6′,7′]cyclohepta-[1′,2′:4,5]pyrrolo[1,2-c]imidazole-3(2H)-thione] | > 10000 | – | 251 | – | 150 to 151 | 5.66 | 7.07
